Data as given in patent US20250025411A1, “READILY SOLUBLE AND THERMOSTABLE GLUCAGON FORMULATIONS AND DELIVERY FOR MINI-DOSING AND CLOSED -LOOP PROPHYLACTIC TREATMENT OF HYPOGLYCEMIA” (Massachusetts Institute of Technology, priority 2023, published 2025).

Experiment: High throughput screening of water-soluble solid excipients for glucagon dissolution
Assay type: physicochemical
Conditions: for Fold change vs. PBS Avg.: 30-minute incubation in pH 7.4 PBS containing 1 mg/mL excipient; for Fold change vs. PBS Avg. / Glucagon concentration Avg.: 37° C.; for Glucagon concentration Avg.: solubilized glucagon after 30-minute incubation of lyophilized glucagon in pH 7.4 PBS containing 1 mg/mL excipient; for enhancement of glucagon dissolution (statistical significance compared to no excipient): 30-minute incubation in pH 7.4 PBS at 37° C.

SMILES: O=S(=O)([O-])CCC[P+](c1ccccc1)(c1ccccc1)c1ccccc1 [3-(Triphenylphosphonio)propane-1-sulfonate]
- Fold change vs. PBS Avg.: 1.21 fold
- Glucagon concentration Avg.: 0.26 mg/mL

SMILES: NC(=O)CNCCS(=O)(=O)O [ACES]
- Fold change vs. PBS Avg.: 1.12 fold
- Glucagon concentration Avg.: 0.24 mg/mL

SMILES: NC(=O)CN(CC(=O)O)CC(=O)O [ADA]
- Fold change vs. PBS Avg.: 0.26 fold
- Glucagon concentration Avg.: 0.06 mg/mL

SMILES: OC[C@H]1O[C@@H]2O[C@H]3[C@H](O)[C@@H](O)[C@@H](O[C@H]4[C@H](O)[C@@H](O)[C@@H](O[C@H]5[C@H](O)[C@@H](O)[C@@H](O[C@H]6[C@H](O)[C@@H](O)[C@@H](O[C@H]7[C@H](O)[C@@H](O)[C@@H](O[C@H]1[C@H](O)[C@H]2O)O[C@@H]7CO)O[C@@H]6CO)O[C@@H]5CO)O[C@@H]4CO)O[C@@H]3CO [Alpha cyclodextrin]
- Fold change vs. PBS Avg.: 0.55 fold
- Glucagon concentration Avg.: 0.12 mg/mL

SMILES: NC(=O)C[C@H](N)C(=O)O.O [Asparagine monohydrate]
- Fold change vs. PBS Avg.: 1.55 fold
- Glucagon concentration Avg.: 0.33 mg/mL

SMILES: OC[C@H]1O[C@@H]2O[C@H]3[C@H](O)[C@@H](O)[C@@H](O[C@H]4[C@H](O)[C@@H](O)[C@@H](O[C@H]5[C@H](O)[C@@H](O)[C@@H](O[C@H]6[C@H](O)[C@@H](O)[C@@H](O[C@H]7[C@H](O)[C@@H](O)[C@@H](O[C@H]8[C@H](O)[C@@H](O)[C@@H](O[C@H]1[C@H](O)[C@H]2O)O[C@@H]8CO)O[C@@H]7CO)O[C@@H]6CO)O[C@@H]5CO)O[C@@H]4CO)O[C@@H]3CO [B-Cyclodextrin]
- Fold change vs. PBS Avg.: 1.40 fold
- Glucagon concentration Avg.: 0.30 mg/mL

SMILES: OCCN(CCO)C(CO)(CO)CO [BIS-TRIS]
- Fold change vs. PBS Avg.: 1.67 fold
- Glucagon concentration Avg.: 0.36 mg/mL

SMILES: O=C(O)c1ccccc1 [Benzoic acid]
- enhancement of glucagon dissolution (statistical significance compared to no excipient): successfully enhanced the dissolution of glucagon
- Fold change vs. PBS Avg.: 15.09 fold
- Glucagon concentration Avg.: 3.25 mg/mL

SMILES: NCCC(=O)O [Beta-Alanine]
- Fold change vs. PBS Avg.: 1.34 fold
- Glucagon concentration Avg.: 0.29 mg/mL

SMILES: C[N+](C)(C)CC(=O)O [Betaine]
- Fold change vs. PBS Avg.: 1.11 fold
- Glucagon concentration Avg.: 0.24 mg/mL

SMILES: CC(C)(O)C(Cl)(Cl)Cl [Chlorobutanol Hemihydrate]
- Fold change vs. PBS Avg.: 1.83 fold
- Glucagon concentration Avg.: 0.39 mg/mL

SMILES: OC[C@H]1O[C@H](O[C@H]2O[C@H](CO)[C@@H](O)[C@H](O)[C@H]2O)[C@H](O)[C@@H](O)[C@@H]1O [D-(+)-Trehalose]
- Fold change vs. PBS Avg.: 1.55 fold
- Glucagon concentration Avg.: 0.33 mg/mL

SMILES: O=C(CO)[C@@H](O)[C@H](O)[C@H](O)CO [D-(−)-Fructose]
- Fold change vs. PBS Avg.: 1.09 fold
- Glucagon concentration Avg.: 0.23 mg/mL

SMILES: CC(C)(S)[C@@H](N)C(=O)O [D-Penicillamine]
- Fold change vs. PBS Avg.: 1.42 fold
- Glucagon concentration Avg.: 0.31 mg/mL

SMILES: OC[C@@H](O)[C@@H](O)[C@H](O)[C@@H](O)CO [D-Sorbitol]
- Fold change vs. PBS Avg.: 1.16 fold
- Glucagon concentration Avg.: 0.25 mg/mL

SMILES: O=C[C@H](O)[C@@H](O)[C@H](O)[C@H](O)CO [D-glucose]
- Fold change vs. PBS Avg.: 1.08 fold
- Glucagon concentration Avg.: 0.23 mg/mL

SMILES: O=S(=O)(O)CC(O)CN(CCO)CCO (centres unmarked) [DIPSO]
- Fold change vs. PBS Avg.: 1.28 fold
- Glucagon concentration Avg.: 0.28 mg/mL

SMILES: O.O=C[C@H](O)[C@@H](O)[C@H](O)[C@H](O)CO [Dextrose Monohydrate]
- Fold change vs. PBS Avg.: 1.09 fold
- Glucagon concentration Avg.: 0.24 mg/mL

SMILES: O=C(O)C(S)C(S)C(=O)O (centres unmarked) [Dimercaptosuccinic acid]
- Fold change vs. PBS Avg.: 2.38 fold
- Glucagon concentration Avg.: 0.51 mg/mL

SMILES: CCCCCCCCCCCCOP(=O)([O-])OCC[N+](C)(C)C [Dodecylphosphocholine]
- enhancement of glucagon dissolution (statistical significance compared to no excipient): successfully enhanced the dissolution of glucagon
- Fold change vs. PBS Avg.: 4.37 fold
- Glucagon concentration Avg.: 0.94 mg/mL

SMILES: O=C(O)CN(CCOCCOCCN(CC(=O)O)CC(=O)O)CC(=O)O [EGTA]
- Fold change vs. PBS Avg.: 3.11 fold
- Glucagon concentration Avg.: 0.67 mg/mL

SMILES: O=S(=O)(O)CCCN1CCN(CCO)CC1 [EPPS]
- Fold change vs. PBS Avg.: 0.79 fold
- Glucagon concentration Avg.: 0.17 mg/mL

SMILES: Nc1nc2ncc(CNc3ccc(C(=O)N[C@@H](CCC(=O)O)C(=O)O)cc3)nc2c(=O)[nH]1 [Folic acid]
- Fold change vs. PBS Avg.: 1.98 fold
- Glucagon concentration Avg.: 0.43 mg/mL

SMILES: O=S(=O)(O)CCN1CCN(CCO)CC1 [HEPES]
- Fold change vs. PBS Avg.: 1.15 fold
- Glucagon concentration Avg.: 0.25 mg/mL

SMILES: CC(O)COC[C@H]1O[C@@H]2O[C@H]3[C@H](O)[C@@H](O)[C@@H](O[C@H]4[C@H](O)[C@@H](O)[C@@H](O[C@H]5[C@H](O)[C@@H](O)[C@@H](O[C@H]6[C@H](O)[C@@H](O)[C@@H](O[C@H]7[C@H](O)[C@@H](O)[C@@H](O[C@H]8[C@H](O)[C@@H](O)[C@@H](O[C@H]1[C@H](O)[C@H]2O)O[C@@H]8COCC(C)O)O[C@@H]7COCC(C)O)O[C@@H]6COCC(C)O)O[C@@H]5COCC(C)O)O[C@@H]4COCC(C)O)O[C@@H]3COCC(C)O (some centres unmarked) [Hydroxypropyl Betadex]
- Fold change vs. PBS Avg.: 1.74 fold
- Glucagon concentration Avg.: 0.37 mg/mL

SMILES: CC[C@H](C)[C@H](N)C(=O)O [Isoleucine]
- Fold change vs. PBS Avg.: 1.88 fold
- Glucagon concentration Avg.: 0.41 mg/mL

SMILES: O=C[C@H](O)[C@@H](O)[C@@H](O)CO [L-(+)-Arabinose]
- Fold change vs. PBS Avg.: 1.52 fold
- Glucagon concentration Avg.: 0.33 mg/mL

SMILES: Cl.N[C@@H](CS)C(=O)O [L-Cysteine hydrochloride]
- Fold change vs. PBS Avg.: 0.93 fold
- Glucagon concentration Avg.: 0.20 mg/mL

SMILES: N[C@@H](CS)C(=O)O [L-Cysteine]
- Fold change vs. PBS Avg.: 0.60 fold
- Glucagon concentration Avg.: 0.13 mg/mL

SMILES: NC(=O)CC[C@H](N)C(=O)O [L-Glutamine]
- enhancement of glucagon dissolution (statistical significance compared to no excipient): successfully enhanced the dissolution of glucagon
- Fold change vs. PBS Avg.: 3.87 fold
- Glucagon concentration Avg.: 0.83 mg/mL

SMILES: N[C@@H](Cc1ccccc1)C(=O)O [L-Phenylalanine]
- Fold change vs. PBS Avg.: 1.66 fold
- Glucagon concentration Avg.: 0.36 mg/mL

SMILES: N[C@@H](Cc1c[nH]c2ccccc12)C(=O)O [L-Tryptophan]
- Fold change vs. PBS Avg.: 1.54 fold
- Glucagon concentration Avg.: 0.33 mg/mL

SMILES: N[C@@H](Cc1c[nH]cn1)C(=O)O [L-histidine]
- Fold change vs. PBS Avg.: 2.57 fold
- Fold change vs. PBS Avg. (listed as L-Histidine): 1.41 fold
- Glucagon concentration Avg.: 0.55 mg/mL
- Glucagon concentration Avg. (listed as L-Histidine): 0.30 mg/mL

SMILES: CC(C)C[C@H](N)C(=O)O [L-leucine]
- Fold change vs. PBS Avg.: 1.32 fold
- Glucagon concentration Avg.: 0.28 mg/mL

SMILES: NCCCC[C@H](N)C(=O)O [L-lysine]
- Fold change vs. PBS Avg.: 2.84 fold
- Glucagon concentration Avg.: 0.61 mg/mL

SMILES: O=C(O)[C@H](O)[C@@H](O)[C@H](O[C@@H]1O[C@H](CO)[C@H](O)[C@H](O)[C@H]1O)[C@H](O)CO [Lactobionic Acid]
- Fold change vs. PBS Avg.: 1.35 fold
- Glucagon concentration Avg.: 0.29 mg/mL

SMILES: CCCCCCCCCCCC[N+](C)(C)CCCS(=O)(=O)O [Lauryl sulfobetaine]
- Fold change vs. PBS Avg.: 0.52 fold
- Glucagon concentration Avg.: 0.11 mg/mL

SMILES: O=S(=O)(O)CC(O)CN1CCOCC1 (centres unmarked) [MOPSO]
- Fold change vs. PBS Avg.: 1.37 fold
- Glucagon concentration Avg.: 0.29 mg/mL

SMILES: O=S(=O)(O)CCCN1CCOCC1 [MOPS]
- Fold change vs. PBS Avg.: 0.80 fold
- Glucagon concentration Avg.: 0.17 mg/mL

SMILES: O=C(O)/C=C\C(=O)O [Maleic Acid]
- Fold change vs. PBS Avg.: 0.34 fold
- Glucagon concentration Avg.: 0.07 mg/mL

SMILES: O=C(O)CC(O)C(=O)O (centres unmarked) [Malic Acid]
- Fold change vs. PBS Avg.: 0.35 fold
- Glucagon concentration Avg.: 0.08 mg/mL

SMILES: OC[C@@H](O)[C@@H](O)[C@H](O)[C@H](O)CO [Mannitol]
- Fold change vs. PBS Avg.: 2.49 fold
- Glucagon concentration Avg.: 0.54 mg/mL

SMILES: CNC[C@H](O)[C@@H](O)[C@H](O)[C@H](O)CO [Meglumine]
- Glucagon concentration Avg.: 1.32 mg/mL

SMILES: CSCC[C@H](N)C(=O)O [Methionine]
- Fold change vs. PBS Avg.: 1.81 fold
- Glucagon concentration Avg.: 0.39 mg/mL

SMILES: CCCCCCCCCCCCCC[N+](C)(C)CCCS(=O)(=O)[O-] [Myristyl sulfobetaine]
- enhancement of glucagon dissolution (statistical significance compared to no excipient): successfully enhanced the dissolution of glucagon
- Fold change vs. PBS Avg.: 5.33 fold
- enhancement of solution glucagon concentration compared to unformulated glucagon (pH 7.4 PBS): up to 500%
- Glucagon concentration Avg.: 1.15 mg/mL

SMILES: NC(=O)c1cccnc1 [Niacinamide]
- Fold change vs. PBS Avg.: 1.17 fold
- Glucagon concentration Avg.: 0.25 mg/mL

SMILES: CCCCCCCC[N+](C)(C)CCCS(=O)(=O)[O-] [Octyl sulfobetaine]
- Fold change vs. PBS Avg.: 1.15 fold
- Glucagon concentration Avg.: 0.25 mg/mL

SMILES: O=C(O)CN(CCN(CC(=O)O)CC(=O)O)CCN(CC(=O)O)CC(=O)O [Pentetic Acid]
- Fold change vs. PBS Avg.: 1.95 fold
- Glucagon concentration Avg.: 0.42 mg/mL

SMILES: O=S(=O)(O)CCN1CCN(CCS(=O)(=O)O)CC1 [Piperazine-N,N′-bis(2-ethanesulfonic acid)]
- enhancement of glucagon dissolution (statistical significance compared to no excipient): successfully enhanced the dissolution of glucagon
- Fold change vs. PBS Avg.: 3.70 fold
- Glucagon concentration Avg.: 0.80 mg/mL

SMILES: O=C([O-])[C@H](O)[C@@H](O)[C@H](O)[C@H](O)CO.[K+] [Potassium Gluconate]
- Fold change vs. PBS Avg.: 1.61 fold
- Glucagon concentration Avg.: 0.35 mg/mL

SMILES: O=S([O-])S(=O)(=O)[O-].[K+].[K+] [Potassium Metabisulfite]
- Fold change vs. PBS Avg.: 2.13 fold
- Glucagon concentration Avg.: 0.46 mg/mL

SMILES: [Cl-].[K+] [Potassium chloride]
- Fold change vs. PBS Avg.: 1.89 fold
- Glucagon concentration Avg.: 0.41 mg/mL

SMILES: O=C1NS(=O)(=O)c2ccccc21.[Na] [Saccharin Sodium]
- Fold change vs. PBS Avg.: 1.21 fold
- Glucagon concentration Avg.: 0.26 mg/mL
